In patent US20230220339A1, “T CELL, PREPARATION METHOD FOR SAME, AND APPLICATIONS THEREOF” (BENETHERA (BEIJING) BIOTECHNOLOGY CO., LTD., priority 2020, published 2023):

Legend:
Format in all cases: cell-based, mouse
[1] = test system: m-calpain; assay: Calpain activity by digestion of the calpain substrate CMAC (flow cytometry); details: for calpain activity (digestion rate of CMAC) after Ryr activation: 4-CMC treatment, FIG. 7
Protocol: Wherein calpain activity measurement procedure: To measure calpain activity, 10^5 T cells were incubated in 200 µL of medium containing 20 µM calpain substrate CMAC (t-BOC-Leu-Met, Thermo Fisher) in the dark at room temperature. After 5 min of incubation, the reaction was terminated with 1 % PFA (Biosharp) and the cells were immediately placed on ice. The fluorescent signal emitted from the digested substrate was measured as calpain activity by Fortessa flow cytometer through the Hoechst blue channel. In all experiments, the inhibitor JTV519 was added 30 min prior to the experiments, and activator 4-CmC and CMAC were added at the same time.

[2] = test system: 3T3 and A20 cells; assay: 4-CmC-induced Ca^2+ signal in cells with or without FoxP3 overexpression; details: FoxP3-transfected 3T3 and A20 cells vs non-FoxP3 overexpression group, HBSS without calcium ions, FIG. 24
Protocol: For non-adherent cells, Treg, Tconv and A20 cells were stained with […] fluo-4 AM (Thermo Fisher) for 1 h at 37° C. After washing, the cells were adhered to poly-L-lysine coated (0.1 mg/mL; Sigma-Aldrich) round glass slides mounted in the sandwich home-made chamber at room temperature. After 15 min, excess non-adherent cells were removed by washing with buffer. For adherent cells, NIH-3T3 and Renca cells grown on glass slides were stained with […] fluo-4 AM (Thermo Fisher) for 1 hour at 37° C. The measurement chamber was then placed on an Olympus IX-73 microscope equipped with a 20-fold (numerical aperture: 0.8) or 40-fold (numerical aperture: 1.2) Olympus objective. Unless otherwise stated, Ca^2+ oscillation within 20 min was recorded at intervals of 6 s. […] For the stimulation experiments, Ca^2+ oscillation within 5 min was recorded at intervals of 1 s. […] The emission signal at 468 nm to 550 nm excited by the 488 nm laser was recorded with a charge coupled device camera (ORCA-AG, Hamamatsu). […] The mean fluorescence intensity changes over time in individual cells were analyzed using ImageJ and normalized with fluorescence intensity in the first frame (Fluo-4 F / F0). The peak of Ca^2+ oscillation of the individual cells was shown, and the standard deviation of Ca^2+ fluctuation intensity was calculated as Mean ± SEM. […]

[3] = test system: DC2.4 cells; assay: AFM single cell force spectrum, T-DC adhesion (two-cell system); details: Ryr2 blocked in Tconv; intensities even stronger than that of Treg, FIG. 14
Protocol: The atomic force microscope-based single cell force spectrum procedures were performed using JPK CellHesion device as described above (see “Alum interaction with dendritic cell membrane lipids is essential for its adjuvanticity” (Flach et al., Nat Med 17, 479-487, 2011) and “Strong adhesion by regulatory T cells induces dendritic cell cytoskeletal polarization and contact-dependent lethargy” (Chen et al., The Journal of experimental medicine, 2017)). Briefly, to measure T-DC adhesion in a two-cell system, DC2.4 cells were cultured on untreated glass plates. T cells were treated with 200 U/mL human IL-2 overnight. The glass plates were moved into an AFM compatible chamber and mounted on a machine table. Clean cantilevers were coated with CellTak (BD), and then stick an individual T cell on thefront end of the cantilever. The AFM cantilever carrying the individual T cell was lowered to allow T cell contact with a single DC and to interact for 15 s, and then moved upward until the two cells were completely separated. A force spectrum curve was obtained. The process was then repeated. […] Treg/Tconv contact-mediated inhibition of OT-II-DC adhesion was analyzed. […] For each SCFS experiment, a T-DC pair was used to generate force readings for each up-down cycle during a period of several minutes. […]

| Compound | calpain activity (digestion rate of CMAC) after Ryr activation ([1]; Tconv cells) | calpain activity (digestion rate of CMAC) after Ryr activation ([1]; Treg cells) | Ca^2+ signal driven by 4-CmC [2] | digestion of m-calpain substrate after JTV519 treatment ([1]; Tconv, inhibitor added 30 min prior, FIG. 13) | contact of treated Tconv with dendritic cells (adhesion) [3] |
| --- | --- | --- | --- | --- | --- |
| Cc1cc(O)ccc1Cl [4-CmC] | completely able to induce calpain activity | not sensitive | drives much less Ca^2+ signal | – | – |
| COc1ccc2c(c1)CN(C(=O)CCN1CCC(Cc3ccccc3)CC1)CCS2 [JTV519] | – | – | – | digestion of low m-calpain substrate | induced strong contact with dendritic cells |
